Measurements published in patent US8722626B2, “Method for controlling fibrosis and other pathological deposits in tissues comprising administering a GHRP-6 composition” (Centro de Ingenieria Genetica y Biotecnologia, priority 2006, dated 2014).
Marks after values point to notes of the source that are not given here.

Experiments:
[1] = test system: pulmonary fibrosis in rats (Bleomycin); test: Control of pulmonary fibrosis induced by Bleomycin in rats (Example 4); type: in vivo, rat; conditions: 4 weeks; for Grade 0 pulmonary fibrosis (no evidences of fibrosis), animals per group / Grade 1 pulmonary fibrosis (predominantly vascular), animals per group / Grade 2 pulmonary fibrosis (additional peri-bronchial compromise), animals per group / Grade 3 pulmonary fibrosis (also interalveolar septum), animals per group: N = 15; for OH—P content (hydroxiproline) in lungs: end of treatment, 15 fragments per group
Method: In this case, the process as induced by sustained administration of the anti-neoplasic agent Bleomycin (Ble) at a 2.5 U/kg dosage twice a week during 4 weeks. […] This point forward, the administration of Ble was suspended and treatment with the pharmaceutical composition containing the GHRP-6 was started. The treatment was applied once daily, at 100 and 400 μg/kg in a 1 ml volume by intraperitoneal route during 4 weeks. […] When treatments concluded, the animals were sacrificed by anesthesia overdose and lungs and blood serum were collected. Tissue fragments were fixed in formalin neutral and processed by hematoxylin/eosin staining, or by Masson's trichromic staining, to evaluate the general damage and the severity of fibrotic indurations. Other fragments of lung tissues were stored at −70° C. until processing to determine the content of hydroxiproline by acid hydrolysis in 1N HCl, and also the […] levels of redox metabolism markers. Biochemical determinations were carried out by calculating the total protein content by the Bradford's method. Histological evaluation of the fibro-proliferative reaction in lungs includes the process of peri-vascular, peri-bronchial and septal fibrosis. The overall grade of pulmonary fibrosis was established according to the extension and intensity of the process in these three segments, to determine the percent of animals affected or unaffected at the end of the treatment with the GHRP-6. The numbers of animals in every group with fibrotic lungs according to the severity of fibrosis are:
Grade 0—No evidences of fibrosis or only thin and diffuse fiber or areolar material foci present, without respiratory compromise.
Grade 1—Fibrosis predominantly vascular in more than 75% of arterioles and capillaries.
Grade 2—Fibrosis predominantly vascular in more than 75% of arterioles and capillaries, with additional peri-bronchial compromise.
Grade 3—Fibrosis predominantly vascular in more than 75% of arterioles and capillaries, with additional peri-bronchial compromise. Fibrotic material is also detected in the interalveolar septum.

[2] = test system: transgenic mice over-expressing one mutated form of the NOTCH 3 gene; test: Dementia of vascular origin: transgenic mice over-expressing mutated NOTCH 3 gene (CADASIL model, Example 6); type: in vivo, mouse; design: SODt (oxidative stress marker) / Cabalase (oxidative stress marker) / HPT (oxidative stress marker) / MDA (oxidative stress marker): unit not given here; conditions: 100 μg/kg i.p. twice a week, 16 weeks
Method: This experiment was conducted to evaluate the efficacy of pharmaceutical compositions indistinctly containing one of the peptides GHRP-6, GHRP-2, hexarelin or ghrelin on the central neurofunctional involution process in transgenic mice over-expressing one mutated form of the NOTCH 3 gene in blood vessel smooth muscle cells. These animals develop in terms of months an arteriopathy similar to that of the CASADIL disease, referred to the descriptive memory, and is occurring as one of the main causes of vascular dementia. In these animals, vascular lesions also include retinal-cerebral, cerebral and cochlear vasculopathies. The beta-amiloid material present in the brain and blood vessels, the deposit of osmophilic granular material in brain and meningeal artery walls and their reduced lumen are histopathologically relevant. White-pale zones, microinfarction and hemorrhagic foci zones appear in the brain and its main nervous trunks.
Eighteen- to twenty-months-old male mice were employed when evidenced the symptoms of the disease. The animals were randomly assigned to the following experimental treatment groups: • A—Placebo group receiving the physiological saline solution. • B—Group receiving GHRP-6 at a 100 μg/kg dosage. • C—Group receiving GHRP-2 at a 100 μg/kg dosage. • D—Group receiving Ghrelin at a 100 μg/kg dosage. • E—Group receiving Hexarelin at a 100 μg/kg dosage.
Treatments were applied twice a week during 16 weeks by intraperitoneal route. When treatments concluded, autopsy studies were conducted irrespective of the clinical improvement evidenced in a great number of animals treated. Brain tissue samples including meningeal tissues were collected for biochemical and histopathological determinations. The animals received anesthesia overdosed and subjected to intra-cardiac perfusion with cold physiological saline solution to wash off the blood present in the encephala. The encephala were extracted and one encephalon was frozen in dry-ice and the other was fixed in 4% para-formaldehyde neutral. Samples were cryo-sliced at 10 μm and slices were stained with hematoxylin/eosin, Congo Red, or incubated with an antibody specific for the beta-amiloid protein. Morphometric procedures were carried out by microscopic imaging capture by a camera connected to the microscope, and the images were analyzed with the DIGIPAT software.
Number of fibrillar deposits of beta-amiloid in blood vessels.
Number of sub-cortical infarctions.
Number of sub-cortical hemorrhages.
Brain concentration of myo-inositol as indicator of aging and brain metabolism deterioration (μmol/g of tissue).
Brain oxidative stress markers.

[3] = test system: renal fibrosis in rats (Doxorubicin); test: Reverting renal fibrosis induced by Doxorubicin in rats (Example 3); type: in vivo, rat; conditions: for GOT serum level (integrity of the hepatic parenchyma) / GPT serum level (integrity of the hepatic parenchyma) / OH—P Content (hydroxiproline) in kidneys / Grado 0 (null) fibrosis in kidneys, numbers of animals per group / Grado 1 (moderate) fibrosis in kidneys, numbers of animals per group / Grado 2 (intense) fibrosis in kidneys, numbers of animals per group / Grado 3 (very intense) fibrosis in kidneys, numbers of animals per group: 4 weeks; for GOT serum level (integrity of the hepatic parenchyma) / GPT serum level (integrity of the hepatic parenchyma) / OH—P Content (hydroxiproline) in kidneys: end of treatment; for OH—P Content (hydroxiproline) in kidneys: 20 fragments per group; for Grado 0 (null) fibrosis in kidneys, numbers of animals per group / Grado 1 (moderate) fibrosis in kidneys, numbers of animals per group / Grado 2 (intense) fibrosis in kidneys, numbers of animals per group / Grado 3 (very intense) fibrosis in kidneys, numbers of animals per group: N = 20; for Catalase (oxidative stress marker) / HPT (oxidative stress marker) / MDA (oxidative stress marker) / SODt (oxidative stress marker): renal tissue samples, end of the fourth week of treatment
Method: This experiment was conducted to evaluate the effect of the pharmaceutical composition containing GHRP-6 in reverting renal fibrosis in rats. In this case, the process was induced by sustained administration of the anti-neoplasic agent Doxorubicin (DX) at a 2.5 mg/kg dosage twice a week during 8 weeks. […] This point forward, DX administration was interrupted and the treatment with the pharmaceutical composition containing the GHRP-6 was started. The treatment was applied once daily at 100 and 400 μg/kg in a volume of 1 ml by the intraperitoneal route, during 4 weeks. The animals remaining were randomly distributed into three experimental groups of 20 rats each: (1) Control placebo group, receiving physiological saline solution, (2) Group receiving the GHRP-6 at a 100 μg/kg dosage, and (3) Group receiving the GHRP-6 at a 400 μg/kg dosage. When treatments concluded, the animals were sacrificed by anesthesia overdose and livers, kidneys, lungs and blood sera were collected. Tissue fragments were fixed in formalin neutral and processed by hematoxylin/eosin staining, or by Masson's trichromic staining, to evaluate the general damage and the severity of fibrotic indurations. Other fragments were stored at −70° C. until processing to determine the content of hydroxiproline by acid hydrolysis in 1N HCl, and also the levels of creatinine and oxidative stress markers. Biochemical determinations were carried out by calculating the total protein content by the Bradford's method.

[4] = Dosage I: 100 μg/kg i.p. once daily
[5] = Dosage II: 400 μg/kg i.p. once daily
[6] = Dosis I: 100 μg/kg i.p. once daily
[7] = Dosis II: 400 μg/kg i.p. once daily

GHRP-6
Grade 0 pulmonary fibrosis (no evidences of fibrosis), animals per group [1, 4]: 3 | Grade 1 pulmonary fibrosis (predominantly vascular), animals per group [1, 4]: 10 | Grade 2 pulmonary fibrosis (additional peri-bronchial compromise), animals per group [1, 4]: 2 | Grade 3 pulmonary fibrosis (also interalveolar septum), animals per group [1, 4]: 0 | OH—P content (hydroxiproline) in lungs [1, 4]: 91.24 ± 16.84 μg/g of total proteins | Grade 0 pulmonary fibrosis (no evidences of fibrosis), animals per group [1, 5]: 8 | Grade 1 pulmonary fibrosis (predominantly vascular), animals per group [1, 5]: 7 | Grade 2 pulmonary fibrosis (additional peri-bronchial compromise), animals per group [1, 5]: 0 | Grade 3 pulmonary fibrosis (also interalveolar septum), animals per group [1, 5]: 0 | OH—P content (hydroxiproline) in lungs [1, 5]: 12.75 ± 3.61 μg/g of total proteins | Animals classified as grade 0 (pulmonary fibrosis) ([1]; dosage II: 400 μg/kg i.p. once daily): > 50% | Cabalase (oxidative stress marker) ([2]; brain): 51.5 ± 16.01 | Cerebral Myo-inositol ([2]; brain): 12.36 ± 5.64 μmol/g of tissue | HPT (oxidative stress marker) ([2]; brain): 101.7 ± 22.09 | MDA (oxidative stress marker) ([2]; brain): 0.23 ± 0.05 | SODt (oxidative stress marker) ([2]; brain): 12327.31 ± 55.1 | No. of blood vessels positive to Congo Red ([2]; cerebral tissues): 16.31 ± 5.33 | No. of blood vessels positive to Nissl ([2]; cerebral tissues): 14.22 ± 8.15 | No. of hemorrhagic foci. ([2]; cerebral tissues): 19.05 ± 5.14 | No. of subcortical infarctions. ([2]; cerebral tissues): 26.79 ± 4.19 | GOT serum level (integrity of the hepatic parenchyma) [3, 4]: 64.82 ± 23.71 IU/l | GPT serum level (integrity of the hepatic parenchyma) [3, 4]: 81.0 ± 10.25 IU/l | OH—P Content (hydroxiproline) in kidneys [3, 4]: 46.15 ± 2.73 μg/g of total proteins | GOT serum level (integrity of the hepatic parenchyma) [3, 5]: 26.22 ± 4.1 IU/l | GPT serum level (integrity of the hepatic parenchyma) [3, 5]: 28.25 ± 5.66 IU/l | OH—P Content (hydroxiproline) in kidneys [3, 5]: 8.66 ± 1.02 μg/g of total proteins | Grado 0 (null) fibrosis in kidneys, numbers of animals per group [3, 6]: 6 | Grado 1 (moderate) fibrosis in kidneys, numbers of animals per group [3, 6]: 9 | Grado 2 (intense) fibrosis in kidneys, numbers of animals per group [3, 6]: 5 | Grado 3 (very intense) fibrosis in kidneys, numbers of animals per group [3, 6]: 0 | Grado 0 (null) fibrosis in kidneys, numbers of animals per group [3, 7]: 5 | Grado 1 (moderate) fibrosis in kidneys, numbers of animals per group [3, 7]: 15* | Grado 2 (intense) fibrosis in kidneys, numbers of animals per group [3, 7]: 0 | Grado 3 (very intense) fibrosis in kidneys, numbers of animals per group [3, 7]: 0 | Percent of animals with renal fibrosis compromise per group at the end of the treatment ([3]; FIGURE, 100 and 400 μg/kg vs. placebo, highest difference at 400 μg/kg): dosage-dependent effect | Catalase (oxidative stress marker) ([3]; Dosage I: 100 μg/kg): 126.02 ± 12.23 | HPT (oxidative stress marker) ([3]; Dosage I: 100 μg/kg): 73.2 ± 6.92 | MDA (oxidative stress marker) ([3]; Dosage I: 100 μg/kg): 0.56 ± 2.23 | SODt (oxidative stress marker) ([3]; Dosage I: 100 μg/kg): 665.08 ± 28.42 | Catalase (oxidative stress marker) ([3]; Dosage II: 400 μg/kg): 45.38 ± 8.27 | HPT (oxidative stress marker) ([3]; Dosage II: 400 μg/kg): 16.14 ± 3.67 | MDA (oxidative stress marker) ([3]; Dosage II: 400 μg/kg): 0.087 ± 0.02 | SODt (oxidative stress marker) ([3]; Dosage II: 400 μg/kg): 1287.64 ± 112.63
